Experimental data: patent US20250049776A1, “AUTOPHAGY INDUCING COMPOUNDS AND USES THEREOF, IN PARTICULAR FOR A SYSTEMIC TREATMENT OF DISEASES AND CONDITIONS” (Samsara Therapeutics Inc., priority 2021, published 2025)
Where a name gives a salt, the structure may show the parent alone.

What was measured:
[1] = tested on: U2OS cell line stabling expressing RFP-eGFP-hLC3b; assay: Tandem reporter assay (autophagic flux, RFP-only puncta); assay type: cell-based; conditions: Homo sapiens, RFP-only puncta as percentage of DMSO-treated control, 24 hours; for activity at 1 µM: read-out: Autolysosome % DMSO activity (compound concentration of 1 μM); for activity at 10 µM: read-out: Autolysosome % DMSO activity (compound concentration of 10 μM)
Description: Selected compounds of this invention were also assessed for their ability to stimulate autophagy using a U20S cell line stabling expressing RFP-eGFP-hLC3b (a tandem reporter cell line). During the process of autophagy, the cargo to be degraded is first enveloped by organelles called autophagosomes. These autophagosomes then fuse with lysosomes, causing them to become acidified and their digestive enzymes to become activated. The term “autophagic flux” is used to represent the dynamic process of autophagy: autophagic flux refers to the whole process of autophagy, including autophagosome formation, maturation, fusion with lysosomes, subsequent breakdown and the release of macromolecules back into the cytosol (Zhang X J, Chen S, Huang K X, Le W D. Why should autophagic flux be assessed? Acta Pharmacol Sin. 2013 May; 34(5): 595-9. doi: 10.1038/aps.2012.184. Epub 2013 Mar. 11). Compounds that stimulate autophagic flux stimulate the dynamic process of autophagy (the whole process of autophagy).
LC3b is a protein found in the membrane of autophagosomes which has been used to generate genetic reporters of autophagy in cells. In these systems a tandem fusion of LC3b is engineered with two fluorescent proteins of different wavelengths: one which is acid sensitive (for example eGFP, which fluoresces green) and the other which is acid insensitive (for example RFP, which fluoresces red). Cells expressing RFP-eGFP-hLC3b can be examined using fluorescent microscopy: the autophagosomes present will fluoresce in both channels (either yellow in an overlay of both channels or puncta that are present in both the individual red and green channels) but the autolysosomes present will fluoresce in the RFP (red) channel only. Using a fluorescent microscope, the number of autophagosomes and autolysosomes can be counted, allowing for the monitoring of both the induction of autophagy (total puncta count) and the rate of autophagic flux (ratio of red-only to red-and-green puncta). The influence of small molecules on autophagy induction and flux can be assessed using this system by comparison to a non-treated control.
Representative Procedure: Human osteosarcoma U2OS cells stably expressing RFP-eGFP-hLC3b were seeded (10,000 cells/well) into a 96-well glass-bottom plate (Cell Carrier Ultra, Perkin Elmer) in DMEM Glutamax media (Gibco) supplemented with 10% Fetal Bovine Serum (FBS) and antibiotics (100 u/ml penicillin, 100 μg/ml streptomycin, Invitrogen), then incubated overnight in a humified atmosphere at 37° C. and 5% CO2. The cells were then treated with the compounds of interest, dissolved in DMSO, in a duplicated 5- or 10-point dose-response. 8 wells were treated with an equivalent volume of DMSO, 4 with 0.3 μM torin-1 as a positive control (MCE) and 4 wells with 0.4 μM torin-1 plus 0.2 μM bafilomycin (MCE) as a control for flux inhibition. The cells were returned to the incubator and the treatment continued for 24 hours. After treatment, the media was aspirated off and the cells fixed with a solution of 4% formaldehyde+1% glutaraldehyde (Sigma) in dPBS (plus magnesium and calcium, Gibco).
Fixation was allowed to proceed for 15 minutes at room temperature then the fixative solution discarded and replaced with PBS (Gibco) plus Hoescht 33342 ([…], Sigma). After 30 minutes the plates were imaged on an Opera Phenix confocal microscope (Perkin-Elmer) using a 40× water objective, collecting using DAPI, mCherry and GFP channels. Cells were detected based upon the staining of their nuclei with DAPI using the Harmony image analysis software (Perkin-Elmer) and the number of autophagosomes (GFP and RFP puncta) and autolysosomes (RFP only puncta) per cell were counted using the spot picking function within the software.

[2] = tested on: Human osteosarcoma U20S cells; assay: Assay to measure lysosome and autolysosome formation (acidic vesicle formation, LysoView/LysoTracker staining); assay type: cell-based; conditions: Homo sapiens; U2OS cells, concentration of 0.8 μM; read-out: Activity (percentage increase in acidic vesicle formation over the DMSO-treated control), Table 2
In short: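 U2OS cells treated with compounds in DMSO for 24 h, then stained 45 min at 37 °C with 1× LysoView 633 or 50 nM LysoTracker Deep Red, with Hoechst nuclear counterstain. Live-cell fluorescence imaging at 37 °C; acidic vesicle formation judged against DMSO-treated control.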

Structure (SMILES) | activity at 1 µM [1] | activity at 10 µM [1] | activation at 0.8 µM [2]
CC(C)N(C(=O)c1csc(-c2cnn(-c3ccccc3)c2)n1)C1CCNCC1 [Compound 163, N-isopropyl-2-(1-phenyl-1H-pyrazol-4-yl)-N-(piperidin-4-yl)thiazole-4-carboxamide hydrochloride] | 144% | 187% | 10 to 30%
CCCN(C(=O)c1csc(-c2cnn(-c3ccccc3)c2)n1)[C@@H]1CCNC1 [Compound 171, (R)-2-(1-phenyl-1H-pyrazol-4-yl)-N-propyl-N-(pyrrolidin-3-yl)thiazole-4-carboxamide hydrochloride] | 200% | 294% | 10 to 30%
